# Data taken from article PMC9898036, “VIP152 is a selective CDK9 inhibitor with pre-clinical in vitro and in vivo efficacy in chronic lymphocytic leukemia” (Leukemia, 2022).
# pIC50: −log10 of the molar value.
# Legend:
# [1] = system: TP53 R175H and R248Q mutated HG-3 cell lines; assay: Annexin V/propidium iodide flow cytometry; format: cell-based, human; details: 24, 48, and 72 h
# α2B receptor = molecular target: T1, α2B receptor (Homo sapiens, UniProt P18089); assay: Eurofins Diversity Panel: adrenergic α2B receptor; format: binding
# T1 construct: purchased Eurofins
# Cannabinoid CB1 = Cannabinoid CB1 (Homo sapiens, UniProt P21554); assay: Eurofins Diversity Panel; format: binding; details: hum, Conc. 10 μM
# Dopamine D2S = Dopamine D2S (Homo sapiens, UniProt P14416); assay: Eurofins Diversity Panel; format: binding; details: hum, Conc. 10 μM
# Sequence of Dopamine D2S (P14416 1-414 isoform P14416-2): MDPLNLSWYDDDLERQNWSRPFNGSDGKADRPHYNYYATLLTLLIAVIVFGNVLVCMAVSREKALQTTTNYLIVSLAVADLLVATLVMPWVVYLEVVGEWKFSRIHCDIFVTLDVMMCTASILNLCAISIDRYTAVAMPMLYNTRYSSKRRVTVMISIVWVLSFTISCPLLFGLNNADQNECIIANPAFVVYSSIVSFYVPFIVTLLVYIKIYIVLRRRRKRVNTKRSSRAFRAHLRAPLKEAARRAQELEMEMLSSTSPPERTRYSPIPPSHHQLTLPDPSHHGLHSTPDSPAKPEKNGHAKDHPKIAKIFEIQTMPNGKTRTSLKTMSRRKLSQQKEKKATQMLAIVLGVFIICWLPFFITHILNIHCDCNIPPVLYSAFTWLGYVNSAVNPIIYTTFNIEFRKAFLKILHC
# [2] = molecular target: Epidermal Growth Factor (EGF) (Homo sapiens, UniProt P00533); assay: Eurofins Diversity Panel; format: binding; details: hum, Conc. 10 μM
# Glutamate, Kainate = assay: Eurofins Diversity Panel; format: binding; details: rat, Conc. 10 μM
# PKNB(M.tuberculosis) = PKNB(M.tuberculosis) (Mycobacterium tuberculosis, UniProt P9WI81); assay: DiscoverX KINOMEscan kinase profiling: PKNB(M.tuberculosis); format: binding; details: PKNB(M.tuberculosis) (Entrez pknB); 100 nM; read-out: Percent Control
# STK16 = STK16 (Homo sapiens, UniProt O75716); assay: KINOMEscan: STK16; format: binding; details: 100 nM, read-out: Percent Control
# TEC = TEC (Homo sapiens, UniProt P42680); assay: KINOMEscan: TEC; format: binding; details: 100 nM, read-out: Percent Control
# TGFBR1 = TGFBR1 (Homo sapiens, UniProt P36897); assay: KINOMEscan: TGFBR1; format: binding; details: 100 nM, read-out: Percent Control
# TNK1 = TNK1 (Homo sapiens, UniProt Q13470); assay: KINOMEscan: TNK1; format: binding; details: 100 nM, read-out: Percent Control
# TNK2 = TNK2 (Homo sapiens, UniProt Q07912); assay: KINOMEscan: TNK2; format: binding; details: 100 nM, read-out: Percent Control
# Sequence of TNK2 (Q07912 whole entry): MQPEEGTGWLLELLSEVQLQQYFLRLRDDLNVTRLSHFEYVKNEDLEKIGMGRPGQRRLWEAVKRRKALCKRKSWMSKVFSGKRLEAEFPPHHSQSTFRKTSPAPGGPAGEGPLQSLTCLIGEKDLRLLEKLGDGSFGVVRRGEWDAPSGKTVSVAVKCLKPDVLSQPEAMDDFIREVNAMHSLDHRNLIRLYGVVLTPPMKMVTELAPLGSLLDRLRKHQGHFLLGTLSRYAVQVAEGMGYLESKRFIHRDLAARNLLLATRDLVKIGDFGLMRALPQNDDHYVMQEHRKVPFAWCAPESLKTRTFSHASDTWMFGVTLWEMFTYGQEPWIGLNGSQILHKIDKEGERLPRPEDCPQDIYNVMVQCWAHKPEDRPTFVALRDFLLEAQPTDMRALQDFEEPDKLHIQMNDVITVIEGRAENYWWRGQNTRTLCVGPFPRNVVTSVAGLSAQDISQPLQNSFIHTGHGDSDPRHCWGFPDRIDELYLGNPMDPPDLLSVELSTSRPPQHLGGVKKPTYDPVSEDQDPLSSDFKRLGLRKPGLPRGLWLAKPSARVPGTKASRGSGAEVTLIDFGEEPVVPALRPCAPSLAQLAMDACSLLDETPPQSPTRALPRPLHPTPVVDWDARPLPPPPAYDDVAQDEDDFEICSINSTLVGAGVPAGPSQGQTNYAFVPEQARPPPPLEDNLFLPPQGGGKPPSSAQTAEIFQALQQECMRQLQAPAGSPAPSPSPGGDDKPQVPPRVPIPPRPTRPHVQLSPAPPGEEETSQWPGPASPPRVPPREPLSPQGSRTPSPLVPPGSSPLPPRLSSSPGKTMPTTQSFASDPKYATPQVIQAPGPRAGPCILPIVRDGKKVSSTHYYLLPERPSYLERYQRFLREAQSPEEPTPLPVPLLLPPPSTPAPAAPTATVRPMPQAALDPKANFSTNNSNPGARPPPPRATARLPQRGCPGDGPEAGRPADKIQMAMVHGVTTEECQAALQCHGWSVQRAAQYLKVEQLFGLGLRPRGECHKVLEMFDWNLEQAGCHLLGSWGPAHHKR
# TSSK1B = TSSK1B (Homo sapiens, UniProt Q9BXA7); assay: KINOMEscan: TSSK1B; format: binding; details: 100 nM, read-out: Percent Control
# TTK = TTK (Homo sapiens, UniProt P33981); assay: KINOMEscan: TTK; format: binding; details: 100 nM, read-out: Percent Control
# AKT1 = AKT1 (Homo sapiens, UniProt P31749); assay: KINOMEscan: AKT1; format: binding; details: 1000 nM, read-out: Percent Control
# Sequence of AKT1 (P31749 whole entry): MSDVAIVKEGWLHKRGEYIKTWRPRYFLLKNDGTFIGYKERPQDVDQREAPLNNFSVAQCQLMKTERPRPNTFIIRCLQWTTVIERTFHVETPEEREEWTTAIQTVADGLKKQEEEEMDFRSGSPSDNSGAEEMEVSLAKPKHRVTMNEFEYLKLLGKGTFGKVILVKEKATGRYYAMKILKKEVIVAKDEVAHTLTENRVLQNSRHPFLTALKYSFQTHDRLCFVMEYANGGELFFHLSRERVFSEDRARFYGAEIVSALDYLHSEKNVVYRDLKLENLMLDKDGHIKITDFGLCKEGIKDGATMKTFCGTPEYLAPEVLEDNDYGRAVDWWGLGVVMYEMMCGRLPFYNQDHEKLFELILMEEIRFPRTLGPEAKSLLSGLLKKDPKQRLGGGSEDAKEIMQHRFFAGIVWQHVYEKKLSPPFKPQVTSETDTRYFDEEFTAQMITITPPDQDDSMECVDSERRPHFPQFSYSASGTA
# AKT3 = AKT3 (Homo sapiens, UniProt Q9Y243); assay: KINOMEscan: AKT3; format: binding; details: 1000 nM, read-out: Percent Control
# BRAF = BRAF (Homo sapiens, UniProt P15056); assay: KINOMEscan: BRAF; format: binding; details: 1000 nM, read-out: Percent Control
# CAMK2D = CAMK2D (Homo sapiens, UniProt Q13557); assay: KINOMEscan: CAMK2D; format: binding; details: 1000 nM, read-out: Percent Control
# CDC2L5 = CDC2L5 (Homo sapiens, UniProt Q14004); assay: KINOMEscan: CDC2L5; format: binding; details: 1000 nM, read-out: Percent Control
# Sequence of CDC2L5 (Q14004 whole entry): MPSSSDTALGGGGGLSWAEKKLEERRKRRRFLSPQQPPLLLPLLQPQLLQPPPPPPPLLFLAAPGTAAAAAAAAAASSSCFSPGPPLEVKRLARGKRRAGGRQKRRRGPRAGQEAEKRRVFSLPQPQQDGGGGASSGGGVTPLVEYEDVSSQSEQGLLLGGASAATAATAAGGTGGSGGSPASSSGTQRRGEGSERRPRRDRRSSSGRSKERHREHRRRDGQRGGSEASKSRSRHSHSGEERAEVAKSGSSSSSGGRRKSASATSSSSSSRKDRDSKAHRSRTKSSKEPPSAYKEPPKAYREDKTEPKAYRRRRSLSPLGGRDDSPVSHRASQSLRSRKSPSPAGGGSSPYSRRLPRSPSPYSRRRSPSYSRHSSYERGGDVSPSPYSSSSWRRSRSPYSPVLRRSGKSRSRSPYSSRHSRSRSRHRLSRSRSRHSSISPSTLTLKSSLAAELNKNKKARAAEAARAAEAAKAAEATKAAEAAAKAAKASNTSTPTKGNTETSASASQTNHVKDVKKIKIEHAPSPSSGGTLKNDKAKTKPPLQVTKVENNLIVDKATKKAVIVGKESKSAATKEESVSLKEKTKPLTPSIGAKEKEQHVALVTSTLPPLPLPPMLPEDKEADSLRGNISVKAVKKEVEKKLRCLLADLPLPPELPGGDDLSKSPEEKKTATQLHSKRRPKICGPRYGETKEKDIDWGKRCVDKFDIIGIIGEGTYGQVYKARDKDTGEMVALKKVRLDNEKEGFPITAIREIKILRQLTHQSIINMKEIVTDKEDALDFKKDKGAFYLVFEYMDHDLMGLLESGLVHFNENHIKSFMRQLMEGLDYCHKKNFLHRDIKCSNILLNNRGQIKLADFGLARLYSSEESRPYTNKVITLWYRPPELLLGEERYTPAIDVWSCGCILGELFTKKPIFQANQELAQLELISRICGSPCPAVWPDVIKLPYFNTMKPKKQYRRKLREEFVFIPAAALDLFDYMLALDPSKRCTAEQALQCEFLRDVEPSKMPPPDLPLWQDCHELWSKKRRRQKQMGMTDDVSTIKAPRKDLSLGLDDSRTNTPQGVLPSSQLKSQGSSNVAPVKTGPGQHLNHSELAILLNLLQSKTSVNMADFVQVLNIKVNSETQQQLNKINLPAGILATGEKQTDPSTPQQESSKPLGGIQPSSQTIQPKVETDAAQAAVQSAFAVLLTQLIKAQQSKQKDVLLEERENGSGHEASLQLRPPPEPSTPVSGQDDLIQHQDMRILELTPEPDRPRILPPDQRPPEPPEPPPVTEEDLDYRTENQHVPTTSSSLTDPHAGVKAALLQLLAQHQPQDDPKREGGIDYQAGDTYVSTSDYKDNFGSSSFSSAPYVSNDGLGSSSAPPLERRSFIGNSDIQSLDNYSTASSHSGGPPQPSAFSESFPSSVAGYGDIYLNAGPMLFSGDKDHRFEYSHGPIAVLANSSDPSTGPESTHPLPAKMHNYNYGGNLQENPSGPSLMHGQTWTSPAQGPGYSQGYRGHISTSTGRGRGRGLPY
# CDK4-cyclinD3 = CDK4-cyclinD3 (Homo sapiens, UniProt P11802); assay: KINOMEscan: CDK4-cyclinD3; format: binding; details: 1000 nM, read-out: Percent Control
# CDKL3 = CDKL3 (Homo sapiens, UniProt Q8IVW4); assay: KINOMEscan: CDKL3; format: binding; details: 1000 nM, read-out: Percent Control
# CDKL5 = CDKL5 (Homo sapiens, UniProt O76039); assay: KINOMEscan: CDKL5; format: binding; details: 1000 nM, read-out: Percent Control
# Sequence of CDKL5 (O76039 whole entry): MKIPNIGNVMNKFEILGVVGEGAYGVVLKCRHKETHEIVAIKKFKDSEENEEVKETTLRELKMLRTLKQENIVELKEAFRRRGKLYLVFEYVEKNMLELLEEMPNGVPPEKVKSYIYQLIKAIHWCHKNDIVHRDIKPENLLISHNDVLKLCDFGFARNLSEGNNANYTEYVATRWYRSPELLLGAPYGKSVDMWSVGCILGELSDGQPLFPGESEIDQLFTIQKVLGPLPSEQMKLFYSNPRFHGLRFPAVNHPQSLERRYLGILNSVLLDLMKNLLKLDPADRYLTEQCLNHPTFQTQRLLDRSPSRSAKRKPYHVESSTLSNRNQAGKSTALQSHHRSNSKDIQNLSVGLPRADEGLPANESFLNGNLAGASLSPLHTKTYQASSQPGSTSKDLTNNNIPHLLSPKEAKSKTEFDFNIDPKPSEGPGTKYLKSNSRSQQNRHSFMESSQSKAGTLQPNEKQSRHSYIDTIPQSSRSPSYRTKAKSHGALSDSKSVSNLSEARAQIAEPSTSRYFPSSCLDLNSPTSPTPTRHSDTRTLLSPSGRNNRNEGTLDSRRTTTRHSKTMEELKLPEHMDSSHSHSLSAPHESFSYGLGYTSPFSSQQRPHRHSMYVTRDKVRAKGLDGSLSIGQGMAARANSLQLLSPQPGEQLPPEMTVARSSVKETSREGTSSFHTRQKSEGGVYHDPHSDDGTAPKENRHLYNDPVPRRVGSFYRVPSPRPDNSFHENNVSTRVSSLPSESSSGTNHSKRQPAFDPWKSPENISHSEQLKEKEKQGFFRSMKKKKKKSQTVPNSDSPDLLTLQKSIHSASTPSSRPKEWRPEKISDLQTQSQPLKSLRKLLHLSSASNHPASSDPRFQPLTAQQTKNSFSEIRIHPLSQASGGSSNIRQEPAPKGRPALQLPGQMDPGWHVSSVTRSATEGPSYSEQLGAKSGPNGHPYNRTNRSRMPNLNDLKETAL
# CLK1 = CLK1 (Homo sapiens, UniProt P49759); assay: KINOMEscan: CLK1; format: binding; details: 1000 nM, read-out: Percent Control
# CSK = CSK (Homo sapiens, UniProt P41240); assay: KINOMEscan: CSK; format: binding; details: 1000 nM, read-out: Percent Control
# Sequence of CSK (P41240 whole entry): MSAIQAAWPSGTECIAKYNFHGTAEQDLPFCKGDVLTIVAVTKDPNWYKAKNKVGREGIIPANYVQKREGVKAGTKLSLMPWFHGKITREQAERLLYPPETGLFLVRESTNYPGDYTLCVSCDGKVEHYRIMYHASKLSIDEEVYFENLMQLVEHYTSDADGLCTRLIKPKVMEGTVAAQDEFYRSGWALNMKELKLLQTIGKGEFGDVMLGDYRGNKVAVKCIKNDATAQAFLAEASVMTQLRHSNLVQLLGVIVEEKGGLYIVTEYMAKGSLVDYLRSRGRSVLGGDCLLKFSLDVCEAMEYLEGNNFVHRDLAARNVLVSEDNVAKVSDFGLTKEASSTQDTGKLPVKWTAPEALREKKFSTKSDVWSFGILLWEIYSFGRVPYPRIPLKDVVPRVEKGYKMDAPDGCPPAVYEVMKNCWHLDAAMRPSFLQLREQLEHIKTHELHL
# DLK = DLK (Homo sapiens, UniProt Q12852); assay: KINOMEscan: DLK; format: binding; details: 1000 nM, read-out: Percent Control
# EGFR(T790M) = EGFR(T790M) (Homo sapiens, UniProt P00533, T790M); assay: KINOMEscan: EGFR(T790M); format: binding; details: 1000 nM, read-out: Percent Control
# EPHA1 = EPHA1 (Homo sapiens, UniProt P21709); assay: KINOMEscan: EPHA1; format: binding; details: 1000 nM, read-out: Percent Control
# EPHA6 = EPHA6 (Homo sapiens, UniProt Q9UF33); assay: KINOMEscan: EPHA6; format: binding; details: 1000 nM, read-out: Percent Control
# ERBB3 = ERBB3 (Homo sapiens, UniProt P21860); assay: KINOMEscan: ERBB3; format: binding; details: 1000 nM, read-out: Percent Control
# ERN1 = ERN1 (Homo sapiens, UniProt O75460); assay: KINOMEscan: ERN1; format: binding; details: 1000 nM, read-out: Percent Control
# FES = FES (Homo sapiens, UniProt P07332); assay: KINOMEscan: FES; format: binding; details: 1000 nM, read-out: Percent Control
# FGFR3 = FGFR3 (Homo sapiens, UniProt P22607); assay: KINOMEscan: FGFR3; format: binding; details: 1000 nM, read-out: Percent Control
# FLT3(ITD,D835V) = assay: KINOMEscan: FLT3(ITD,D835V); format: binding, human; details: 1000 nM
# FLT3(K663Q) = FLT3(K663Q) (Homo sapiens, UniProt P36888, K663Q); assay: KINOMEscan: FLT3(K663Q); format: binding; details: 1000 nM, read-out: Percent Control
# HIPK1 = HIPK1 (Homo sapiens, UniProt Q86Z02); assay: KINOMEscan: HIPK1; format: binding; details: 1000 nM, read-out: Percent Control
# JNK1 = JNK1 (Homo sapiens, UniProt P45983); assay: KINOMEscan: JNK1; format: binding; details: 1000 nM, read-out: Percent Control
# LZK = LZK (Homo sapiens, UniProt O43283); assay: KINOMEscan: LZK; format: binding; details: 1000 nM, read-out: Percent Control
# MAP3K4 = MAP3K4 (Homo sapiens, UniProt Q9Y6R4); assay: KINOMEscan: MAP3K4; format: binding; details: 1000 nM, read-out: Percent Control
# MEK2 = MEK2 (Homo sapiens, UniProt P36507); assay: KINOMEscan: MEK2; format: binding; details: 1000 nM, read-out: Percent Control
# MKNK1 = MKNK1 (Homo sapiens, UniProt Q9BUB5); assay: KINOMEscan: MKNK1; format: binding; details: 1000 nM, read-out: Percent Control
# MLK1 = MLK1 (Homo sapiens, UniProt P80192); assay: KINOMEscan: MLK1; format: binding; details: 1000 nM, read-out: Percent Control
structure (smiles),measurement,setting,value
COc1cc(F)ccc1-c1cc(Nc2cc(CS(C)(=N)=O)ccn2)ncc1F (centres unmarked) [VIP152],cytotoxicity,[1],significant levels of cytotoxicity
same,pIC50,α2B receptor,5.93
same,inhibition at 10 µM,Cannabinoid CB1,16%
same,inhibition at 10 µM,Dopamine D2S,15%
same,inhibition at 10 µM,[2],-15%
same,% Inh.,"Glutamate, Kainate",13%
same,remaining binding at 0.1 µM,PKNB(M.tuberculosis),100%
same,remaining binding at 0.1 µM,STK16,100%
same,remaining binding at 0.1 µM,TEC,100%
same,remaining binding at 0.1 µM,TGFBR1,100%
same,remaining binding at 0.1 µM,TNK1,100%
same,remaining binding at 0.1 µM,TNK2,100%
same,remaining binding at 0.1 µM,TSSK1B,78%
same,remaining binding at 0.1 µM,TTK,95%
same,remaining binding at 1 µM,AKT1,99%
same,remaining binding at 1 µM,AKT3,98%
same,remaining binding at 1 µM,BRAF,55%
same,remaining binding at 1 µM,CAMK2D,69%
same,remaining binding at 1 µM,CDC2L5,13%
same,remaining binding at 1 µM,CDK4-cyclinD3,14%
same,remaining binding at 1 µM,CDKL3,53%
same,remaining binding at 1 µM,CDKL5,90%
same,remaining binding at 1 µM,CLK1,71%
same,remaining binding at 1 µM,CSK,92%
same,remaining binding at 1 µM,DLK,90%
same,remaining binding at 1 µM,EGFR(T790M),94%
same,remaining binding at 1 µM,EPHA1,78%
same,remaining binding at 1 µM,EPHA6,90%
same,remaining binding at 1 µM,ERBB3,98%
same,remaining binding at 1 µM,ERN1,86%
same,remaining binding at 1 µM,FES,87%
same,remaining binding at 1 µM,FGFR3,75%
same,Percent Control,"FLT3(ITD,D835V)",60%
same,remaining binding at 1 µM,FLT3(K663Q),80%
same,remaining binding at 1 µM,HIPK1,54%
same,remaining binding at 1 µM,JNK1,82%
same,remaining binding at 1 µM,LZK,100%
same,remaining binding at 1 µM,MAP3K4,82%
same,remaining binding at 1 µM,MEK2,88%
same,remaining binding at 1 µM,MKNK1,98%
same,remaining binding at 1 µM,MLK1,76%
